Assays:
Assay type in all cases: cell-based, human
RC cells (DLBCL) = assay: Cell surface BCMA by FACS
Experimental: (§1) Cells were seeded at 1×10^4 cells/well in a total volume of 250 μl into a 96-well plate. The cells were cultured in RPMI supplemented with 10% FCS.
(§2) The tested compounds (Compound 1 and Compound 22) were added to the cell cultures at concentrations of: 0, 10, 1, 0.5, 0.1, 0.01, 0.001 μM ([…], 10 nM, 100 nM, 500 nM, 1000 nM, and 10000 nM). Following 24 hours of incubation at 37° C., the cells were collected and stained with anti-BCMA antibody and immediately analyzed by FACS.
(§3) […] cell lines, comprising 9 subtypes of lymphomas (see Table 1), were seeded at 1×10^5 cells/well in a total volume of 250 μl into a 96-well plate. The cells were cultured in RPMI medium supplemented with 10% FCS. Compound (22) was added to the cell cultures at a concentration of 10 μM, 1 μM, 100 nM, 10 nM, 1 nM, 100 pM, 10 pM, 1 pM, and 100 fM, and cell lines (8 from Hadassah Medical Center, 31 from Eurofins) were incubated at 37° C. for 24 hours with Compound (22). Following incubation, the cells were collected and BCMA levels were evaluated on the cell surface for cell-bound BCMA. Cells were stained with an anti-BCMA antibody (PE anti-human 19F2 BCMA, Biolegend), and cell surface BCMA levels were determined by FACS analysis (Mean Fluorescence Intensity. Soluble BCMA levels were analyzed by ELISA (Human BCMA/TNFRSF17 DuoSet kit: R&D Systems).

Toledo cells (DLBCL) = assay: Cell surface BCMA by FACS
Experimental: as §1, §2, §3

REH cells (B-ALL) = assay: Cell surface BCMA by FACS
Experimental: as §1, §2, §3

[1] = tested on: SP49 cells (Mantle Cell Lymphoma); assay: Cell surface BCMA by FACS
Experimental: as §1, §2, §3

[2] = tested on: H9 cells (Cutaneous T-cell Lymphoma); assay: Soluble (shed) BCMA by ELISA
Experimental: as §3

[3] = tested on: Jeko-1 cells (Mantle Cell Lymphoma); assay: Soluble (shed) BCMA by ELISA
Experimental: as §3

[4] = tested on: Raji cells (Burkitt's Lymphoma); assay: Soluble (shed) BCMA by ELISA
Experimental: as §3

DOHH-2 cells (DLBCL) = assay: Soluble (shed) BCMA by ELISA
Experimental: as §3

HT cells (DLBCL) = assay: Soluble (shed) BCMA by ELISA
Experimental: as §3

[5] = tested on: CA46 cells (Burkitt's Lymphoma); assay: Soluble (shed) BCMA by ELISA
Experimental: as §3

ST486 cells (DLBCL) = assay: Soluble (shed) BCMA by ELISA
Experimental: as §3

[6] = tested on: Jiyoye cells (Burkitt's Lymphoma); assay: Soluble (shed) BCMA by ELISA
Experimental: as §3

[7] = tested on: EB-2 cells (Burkitt's Lymphoma); assay: Soluble (shed) BCMA by ELISA
Experimental: as §3

SUDHL-10 cells (DLBCL) = assay: Soluble (shed) BCMA by ELISA
Experimental: as §3

[8] = tested on: JVM-2 cells (Mantle Cell Lymphoma); assay: Soluble (shed) BCMA by ELISA
Experimental: as §3

[9] = tested on: EB-3 cells (Burkitt's Lymphoma); assay: Soluble (shed) BCMA by ELISA
Experimental: as §3

[10] = tested on: L-248 cells (Hodgkin's Lymphoma); assay: Soluble (shed) BCMA by ELISA
Experimental: as §3

[11] = tested on: SR cells (Anaplastic Large Cell Lymphoma); assay: Soluble (shed) BCMA by ELISA
Experimental: as §3

[12] = tested on: Ramos cells (Burkitt's Lymphoma); assay: Soluble (shed) BCMA by ELISA
Experimental: as §3

[13] = tested on: NU-DUL-1 cells (B-cell Lymphoma); assay: Soluble (shed) BCMA by ELISA
Experimental: as §3

[14] = tested on: CRO-AP2 cells (B-cell Lymphoma); assay: Soluble (shed) BCMA by ELISA
Experimental: as §3

[15] = tested on: RPMI-6666 cells (Hodgkin's Lymphoma); assay: Soluble (shed) BCMA by ELISA
Experimental: as §3

[16] = Homo sapiens, read-out: Shed BCMA (pg/ml) EC50

Cc1cccc2c1NC(=O)[C@@H](NC(=O)[C@H](CCC(F)(F)F)[C@H](CCC(F)(F)F)C(N)=O)N=C2c1cccc(F)c1 [Compound (22), (2R,3S)—N-((3S)-5-(3-fluorophenyl)-9-methyl-2-oxo-2,3-dihydro-1H-1,4-benzodiazepin-3-yl)-2,3-bis(3,3,3-trifluoropropyl)succinamide]
mBCMA (MFI) Fold Increase (RC cells (DLBCL)): 2.9 fold
BCMA (Mean Fluorescence Intensity) 1 nM Compound (22) (RC cells (DLBCL); 1 nM, 24 h): 12970
BCMA (Mean Fluorescence Intensity) 100 nM Compound (22) (RC cells (DLBCL); 100 nM, 24 h): 15001
mBCMA (MFI) Fold Increase (Toledo cells (DLBCL)): 3.2 fold
BCMA (Mean Fluorescence Intensity) 1 nM Compound (22) (Toledo cells (DLBCL); 1 nM, 24 h): 7541
BCMA (Mean Fluorescence Intensity) 100 nM Compound (22) (Toledo cells (DLBCL); 100 nM, 24 h): 9580
mBCMA (MFI) Fold Increase (REH cells (B-ALL)): 0.9 fold
BCMA (Mean Fluorescence Intensity) 1 nM Compound (22) (REH cells (B-ALL); 1 nM, 24 h): 5559
BCMA (Mean Fluorescence Intensity) 100 nM Compound (22) (REH cells (B-ALL); 100 nM, 24 h): 6463
mBCMA (MFI) Fold Increase [1]: 3.3 fold
BCMA (Mean Fluorescence Intensity) 1 nM Compound (22) ([1]; 1 nM, 24 h): 12697
BCMA (Mean Fluorescence Intensity) 100 nM Compound (22) ([1]; 100 nM, 24 h): 17462
Shed BCMA (pg/ml) % Reduction [2]: BLQ
EC50 [2, 16]: > 10000 nM
EC50 ([3]; Homo sapiens, JeKo-1, read-out: Shed BCMA (pg/ml) EC50): 1.1 nM
soluble BCMA 10 nM Compound (22) ([3]; JEKO-1, 10 nM, 24 h): 338
Shed BCMA (pg/ml) % Reduction ([3]; Jeko-1): 76%
soluble BCMA 1 nM Compound (22) ([3]; Jeko-1, 1 nM, 24 h): 1245.6
soluble BCMA 100 nM Compound (22) ([3]; Jeko-1, 100 nM, 24 h): 305.6
Shed BCMA (pg/ml) % Reduction [4]: 99%
soluble BCMA 1 nM Compound (22) ([4]; 1 nM, 24 h): 81.4
soluble BCMA 10 nM Compound (22) ([4]; 10 nM, 24 h): 29.7
soluble BCMA 100 nM Compound (22) ([4]; 100 nM, 24 h): 26.3
EC50 [4, 16]: 0.3 nM
Shed BCMA (pg/ml) % Reduction (DOHH-2 cells (DLBCL)): 93%
soluble BCMA 1 nM Compound (22) (DOHH-2 cells (DLBCL); 1 nM, 24 h): 1272.1
soluble BCMA 10 nM Compound (22) (DOHH-2 cells (DLBCL); 10 nM, 24 h): 136
soluble BCMA 100 nM Compound (22) (DOHH-2 cells (DLBCL); 100 nM, 24 h): 98.4
EC50 (DOHH-2 cells (DLBCL); [16]): 2.2 nM
Shed BCMA (pg/ml) % Reduction (HT cells (DLBCL)): 98%
soluble BCMA 1 nM Compound (22) (HT cells (DLBCL); 1 nM, 24 h): 389.4
soluble BCMA 10 nM Compound (22) (HT cells (DLBCL); 10 nM, 24 h): 99.4
soluble BCMA 100 nM Compound (22) (HT cells (DLBCL); 100 nM, 24 h): 38
EC50 (HT cells (DLBCL); [16]): 1 nM
Shed BCMA (pg/ml) % Reduction ([5]; CA46): 90%
soluble BCMA 1 nM Compound (22) ([5]; CA-46, 1 nM, 24 h): 1775.4
soluble BCMA 10 nM Compound (22) ([5]; CA-46, 10 nM, 24 h): 330
soluble BCMA 100 nM Compound (22) ([5]; CA-46, 100 nM, 24 h): 173.2
EC50 ([5]; Homo sapiens, CA46, read-out: Shed BCMA (pg/ml) EC50): 7.4 nM
Shed BCMA (pg/ml) % Reduction (ST486 cells (DLBCL)): 90%
EC50 (ST486 cells (DLBCL); [16]): 0.9 nM
EC50 ([6]; Homo sapiens, JIYOYE, read-out: Shed BCMA (pg/ml) EC50): 2.3 nM
soluble BCMA 10 nM Compound (22) ([6]; JIYOYE, 10 nM, 24 h): 472.3
Shed BCMA (pg/ml) % Reduction ([6]; Jiyoye): 81%
soluble BCMA 1 nM Compound (22) ([6]; Jiyoye, 1 nM, 24 h): 1707.7
soluble BCMA 100 nM Compound (22) ([6]; Jiyoye, 100 nM, 24 h): 373.1
soluble BCMA ([6]; Jiyoye, FIG. 8B): decreased soluble BCMA
soluble BCMA 1 nM Compound (22) ([7]; EB2, 1 nM, 24 h): >2000
soluble BCMA 10 nM Compound (22) ([7]; EB2, 10 nM, 24 h): 597.7
soluble BCMA 100 nM Compound (22) ([7]; EB2, 100 nM, 24 h): 479.4
Shed BCMA (pg/ml) % Reduction ([7]; EB-2): 70%
EC50 ([7]; Homo sapiens, EB2, EB-2, read-out: Shed BCMA (pg/ml) EC50): 7.1 nM
Shed BCMA (pg/ml) % Reduction (SUDHL-10 cells (DLBCL)): 97%
EC50 (SUDHL-10 cells (DLBCL); Homo sapiens, SU-DHL10, read-out: Shed BCMA (pg/ml) EC50): 0.9 nM
Shed BCMA (pg/ml) % Reduction [8]: 57%
EC50 [8, 16]: 75.3 nM
Shed BCMA (pg/ml) % Reduction [9]: BLQ
EC50 [9, 16]: > 10000 nM
Shed BCMA (pg/ml) % Reduction [10]: BLQ
EC50 [10, 16]: > 10000 nM
Shed BCMA (pg/ml) % Reduction [11]: BLQ
EC50 [11, 16]: > 10000 nM
Shed BCMA (pg/ml) % Reduction [12]: 76%
soluble BCMA 1 nM Compound (22) ([12]; 1 nM, 24 h): >2000
soluble BCMA 10 nM Compound (22) ([12]; 10 nM, 24 h): 613.3
soluble BCMA 100 nM Compound (22) ([12]; 100 nM, 24 h): 504.3
EC50 [12, 16]: 8.6 nM
Shed BCMA (pg/ml) % Reduction [13]: 91%
EC50 [13, 16]: 1 nM
Shed BCMA (pg/ml) % Reduction [14]: 91%
soluble BCMA 1 nM Compound (22) ([14]; 1 nM, 24 h): 1895.3
soluble BCMA 10 nM Compound (22) ([14]; 10 nM, 24 h): 409.5
soluble BCMA 100 nM Compound (22) ([14]; 100 nM, 24 h): 126.1
EC50 [14, 16]: 4.8 nM
Shed BCMA (pg/ml) % Reduction [15]: 92%
EC50 [15, 16]: 9.1 nM

Source: patent US20200085839A1, “COMBINATION OF IMMUNOTHERAPEUTICS AND BISFLUOROALKYL-1,4-BENZODIAZEPINONE COMPOUNDS FOR TREATING LYMPHOMAS” (Ayala Pharmaceuticals Inc., priority 2018, published 2020)
